Laboratory results as given in ChEMBL document CHEMBL4043093, “2-Oxo-3, 4-dihydropyrimido[4, 5-d]pyrimidinyl derivatives as new irreversible pan fibroblast growth factor receptor (FGFR) inhibitors” (Eur J Med Chem, 2017).

How the values were obtained:
[1] = biological target: Aurora kinase A (Homo sapiens) (UniProt O14965); experiment: Inhibition of wild-type human partial length AURKA (E122 to K401 residues) expressed in HEK293 cells assessed as residual activity at 1000 nM after 30 mins by Kinomescan method relative to control; type: cell-based
Chain of Aurora kinase A (Homo sapiens) (O14965 whole entry, the tested form may be a part): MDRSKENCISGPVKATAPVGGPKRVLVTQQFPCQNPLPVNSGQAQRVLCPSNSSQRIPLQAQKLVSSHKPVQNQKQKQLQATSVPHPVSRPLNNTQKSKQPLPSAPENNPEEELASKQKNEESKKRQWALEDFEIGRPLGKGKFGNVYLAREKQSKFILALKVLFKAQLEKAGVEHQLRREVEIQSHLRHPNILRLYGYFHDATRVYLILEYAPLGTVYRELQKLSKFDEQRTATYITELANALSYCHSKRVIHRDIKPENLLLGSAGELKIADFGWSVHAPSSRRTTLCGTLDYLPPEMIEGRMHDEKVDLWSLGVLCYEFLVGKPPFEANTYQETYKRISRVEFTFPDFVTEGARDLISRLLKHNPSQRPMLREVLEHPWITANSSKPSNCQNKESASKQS

[2] = biological target: Citron Rho-interacting kinase (Homo sapiens) (UniProt O14578); experiment: Inhibition of wild-type human partial length CIT (M68 to E432 residues) expressed in Escherichia coli BL21 assessed as residual activity at 1000 nM after 30 mins by Kinomescan method relative to control
Chain of Citron Rho-interacting kinase (Homo sapiens) (O14578 whole entry, the tested form may be a part): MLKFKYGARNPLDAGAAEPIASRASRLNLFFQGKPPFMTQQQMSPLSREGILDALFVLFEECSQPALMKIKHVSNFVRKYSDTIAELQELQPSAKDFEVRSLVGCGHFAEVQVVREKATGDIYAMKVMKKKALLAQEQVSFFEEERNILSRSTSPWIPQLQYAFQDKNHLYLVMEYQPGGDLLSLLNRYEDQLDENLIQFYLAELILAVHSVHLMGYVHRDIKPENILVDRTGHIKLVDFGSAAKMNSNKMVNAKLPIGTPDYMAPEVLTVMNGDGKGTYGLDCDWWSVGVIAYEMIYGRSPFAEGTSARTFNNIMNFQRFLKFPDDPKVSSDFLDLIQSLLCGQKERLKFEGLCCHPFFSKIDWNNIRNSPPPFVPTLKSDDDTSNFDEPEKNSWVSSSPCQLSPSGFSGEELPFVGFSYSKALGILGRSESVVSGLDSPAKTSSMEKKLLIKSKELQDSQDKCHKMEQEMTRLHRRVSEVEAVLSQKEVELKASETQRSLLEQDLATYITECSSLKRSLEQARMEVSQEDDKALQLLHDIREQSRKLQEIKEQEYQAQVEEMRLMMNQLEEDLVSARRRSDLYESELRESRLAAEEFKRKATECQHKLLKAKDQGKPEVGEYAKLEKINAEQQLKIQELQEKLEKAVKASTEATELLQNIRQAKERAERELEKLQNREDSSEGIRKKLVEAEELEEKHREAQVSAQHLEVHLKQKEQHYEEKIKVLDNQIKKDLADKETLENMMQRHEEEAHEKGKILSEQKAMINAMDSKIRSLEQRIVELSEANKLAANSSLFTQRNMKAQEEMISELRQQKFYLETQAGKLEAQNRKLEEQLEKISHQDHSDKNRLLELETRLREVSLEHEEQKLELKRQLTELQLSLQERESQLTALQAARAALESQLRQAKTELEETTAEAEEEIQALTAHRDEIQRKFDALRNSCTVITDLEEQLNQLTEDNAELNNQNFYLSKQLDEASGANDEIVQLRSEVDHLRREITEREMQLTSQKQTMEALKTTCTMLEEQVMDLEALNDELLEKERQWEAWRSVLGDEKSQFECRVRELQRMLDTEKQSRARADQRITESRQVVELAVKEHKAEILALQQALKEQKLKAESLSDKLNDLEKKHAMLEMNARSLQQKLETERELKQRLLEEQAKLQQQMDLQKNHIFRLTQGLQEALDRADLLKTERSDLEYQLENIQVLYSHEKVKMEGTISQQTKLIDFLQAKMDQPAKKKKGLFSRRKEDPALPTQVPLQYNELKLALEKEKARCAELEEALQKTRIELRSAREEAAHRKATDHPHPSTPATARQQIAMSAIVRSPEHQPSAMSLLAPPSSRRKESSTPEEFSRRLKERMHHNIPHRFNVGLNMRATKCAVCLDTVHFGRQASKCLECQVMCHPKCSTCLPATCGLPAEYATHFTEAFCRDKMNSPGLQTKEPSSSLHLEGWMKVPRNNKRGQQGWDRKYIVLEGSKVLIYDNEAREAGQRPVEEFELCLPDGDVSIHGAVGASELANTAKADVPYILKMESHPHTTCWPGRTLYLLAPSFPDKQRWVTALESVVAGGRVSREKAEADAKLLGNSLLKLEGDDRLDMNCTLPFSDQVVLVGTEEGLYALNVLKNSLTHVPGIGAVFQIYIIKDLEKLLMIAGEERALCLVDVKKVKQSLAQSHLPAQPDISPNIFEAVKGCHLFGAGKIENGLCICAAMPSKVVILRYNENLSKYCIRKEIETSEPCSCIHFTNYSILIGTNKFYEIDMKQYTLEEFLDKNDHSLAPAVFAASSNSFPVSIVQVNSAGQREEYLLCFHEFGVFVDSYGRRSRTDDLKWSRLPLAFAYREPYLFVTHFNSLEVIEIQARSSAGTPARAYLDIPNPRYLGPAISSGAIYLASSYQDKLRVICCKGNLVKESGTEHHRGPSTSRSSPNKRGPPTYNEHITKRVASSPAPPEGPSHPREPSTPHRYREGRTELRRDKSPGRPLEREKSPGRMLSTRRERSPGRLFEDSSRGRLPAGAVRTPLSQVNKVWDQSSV

[3] = biological target: MAP kinase-activated protein kinase 5 (Homo sapiens) (UniProt Q8IW41); experiment: Inhibition of wild-type human partial length MAPKAPK5 (M1 to D322 residues) expressed in HEK293 cells assessed as residual activity at 1000 nM after 30 mins by Kinomescan method relative to control; type: cell-based
Chain of MAP kinase-activated protein kinase 5 (Homo sapiens) (Q8IW41 whole entry, the tested form may be a part): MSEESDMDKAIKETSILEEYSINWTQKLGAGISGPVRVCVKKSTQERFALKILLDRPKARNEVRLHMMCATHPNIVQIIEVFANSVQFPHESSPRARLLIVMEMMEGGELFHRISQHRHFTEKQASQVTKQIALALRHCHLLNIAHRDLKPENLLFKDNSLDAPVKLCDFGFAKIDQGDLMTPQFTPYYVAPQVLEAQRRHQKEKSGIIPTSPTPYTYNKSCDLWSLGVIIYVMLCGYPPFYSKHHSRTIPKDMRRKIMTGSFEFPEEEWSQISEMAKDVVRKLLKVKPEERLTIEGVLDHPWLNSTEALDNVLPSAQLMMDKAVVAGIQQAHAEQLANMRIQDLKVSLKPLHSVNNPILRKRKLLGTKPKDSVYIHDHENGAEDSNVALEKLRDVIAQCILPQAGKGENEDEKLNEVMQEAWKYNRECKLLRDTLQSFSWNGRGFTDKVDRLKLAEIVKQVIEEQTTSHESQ

[4] = biological target: Serine/threonine-protein kinase pim-3 (Homo sapiens) (UniProt Q86V86); experiment: Inhibition of wild-type human partial length PIM3 (G16 to A317 residues) expressed in Escherichia coli BL21 assessed as residual activity at 1000 nM after 30 mins by Kinomescan method relative to control
[5] = biological target: STE20-like serine/threonine-protein kinase (Homo sapiens) (UniProt Q9H2G2); experiment: Inhibition of wild-type human partial length SLK (S14 to A307 residues) expressed in Escherichia coli BL21 assessed as residual activity at 1000 nM after 30 mins by Kinomescan method relative to control
Chain of STE20-like serine/threonine-protein kinase (Homo sapiens) (Q9H2G2 whole entry, looked up, the tested form may be a part): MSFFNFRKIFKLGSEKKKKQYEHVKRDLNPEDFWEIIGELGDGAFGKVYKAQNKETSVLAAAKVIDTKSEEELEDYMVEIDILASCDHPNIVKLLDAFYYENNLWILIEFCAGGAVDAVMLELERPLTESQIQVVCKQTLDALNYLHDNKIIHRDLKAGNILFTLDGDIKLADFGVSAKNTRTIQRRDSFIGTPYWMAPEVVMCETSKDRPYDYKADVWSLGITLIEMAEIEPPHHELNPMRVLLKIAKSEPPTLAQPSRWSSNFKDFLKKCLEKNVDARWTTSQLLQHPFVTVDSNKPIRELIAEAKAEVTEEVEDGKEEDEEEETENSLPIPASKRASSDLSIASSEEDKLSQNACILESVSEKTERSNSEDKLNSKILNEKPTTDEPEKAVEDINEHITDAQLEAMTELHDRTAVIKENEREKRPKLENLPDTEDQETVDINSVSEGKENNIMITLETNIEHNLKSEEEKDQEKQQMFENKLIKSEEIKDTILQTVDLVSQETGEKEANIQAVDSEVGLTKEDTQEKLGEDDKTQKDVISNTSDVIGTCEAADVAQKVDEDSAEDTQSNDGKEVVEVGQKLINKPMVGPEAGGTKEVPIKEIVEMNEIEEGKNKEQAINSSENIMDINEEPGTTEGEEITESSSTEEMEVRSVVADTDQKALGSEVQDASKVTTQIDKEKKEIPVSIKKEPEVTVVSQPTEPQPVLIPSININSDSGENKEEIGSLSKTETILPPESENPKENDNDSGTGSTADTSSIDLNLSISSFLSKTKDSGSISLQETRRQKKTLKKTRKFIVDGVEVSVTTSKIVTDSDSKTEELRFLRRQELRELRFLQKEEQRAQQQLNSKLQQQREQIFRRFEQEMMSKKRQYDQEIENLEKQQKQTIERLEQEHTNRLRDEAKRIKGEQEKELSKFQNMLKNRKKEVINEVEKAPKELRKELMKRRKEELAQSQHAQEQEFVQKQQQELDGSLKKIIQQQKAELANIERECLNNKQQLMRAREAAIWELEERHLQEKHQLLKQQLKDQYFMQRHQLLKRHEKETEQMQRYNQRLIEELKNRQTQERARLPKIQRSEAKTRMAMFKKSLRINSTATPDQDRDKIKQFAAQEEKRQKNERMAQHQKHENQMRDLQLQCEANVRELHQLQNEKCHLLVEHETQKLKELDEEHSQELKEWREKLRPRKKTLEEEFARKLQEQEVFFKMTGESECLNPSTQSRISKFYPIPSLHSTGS

COc1cc(OC)c(Cl)c(N2Cc3cnc(Nc4ccc(F)cc4)nc3N(C3CCN(C(=O)/C=C/CN(C)C)CC3)C2=O)c1Cl
Activity [1]: 100%
Activity [2]: 99%
Activity [3]: 100%
Activity [4]: 100%
Activity [5]: 100%
